Laboratory results taken from patent publication US8884023B2, “Pyrano [3,2-D][1,3]thiazole as glycosidase inhibitors” (priority 2011, dated 2014).
Like-named read-outs stand apart in the source and are kept apart here.

Tests used:
[1] = molecular target: T1, His-Tagged hOGA (human O-GlcNAcase) (Homo sapiens, UniProt O60502); experiment: biochemical
T1 sequence (O60502 1-916): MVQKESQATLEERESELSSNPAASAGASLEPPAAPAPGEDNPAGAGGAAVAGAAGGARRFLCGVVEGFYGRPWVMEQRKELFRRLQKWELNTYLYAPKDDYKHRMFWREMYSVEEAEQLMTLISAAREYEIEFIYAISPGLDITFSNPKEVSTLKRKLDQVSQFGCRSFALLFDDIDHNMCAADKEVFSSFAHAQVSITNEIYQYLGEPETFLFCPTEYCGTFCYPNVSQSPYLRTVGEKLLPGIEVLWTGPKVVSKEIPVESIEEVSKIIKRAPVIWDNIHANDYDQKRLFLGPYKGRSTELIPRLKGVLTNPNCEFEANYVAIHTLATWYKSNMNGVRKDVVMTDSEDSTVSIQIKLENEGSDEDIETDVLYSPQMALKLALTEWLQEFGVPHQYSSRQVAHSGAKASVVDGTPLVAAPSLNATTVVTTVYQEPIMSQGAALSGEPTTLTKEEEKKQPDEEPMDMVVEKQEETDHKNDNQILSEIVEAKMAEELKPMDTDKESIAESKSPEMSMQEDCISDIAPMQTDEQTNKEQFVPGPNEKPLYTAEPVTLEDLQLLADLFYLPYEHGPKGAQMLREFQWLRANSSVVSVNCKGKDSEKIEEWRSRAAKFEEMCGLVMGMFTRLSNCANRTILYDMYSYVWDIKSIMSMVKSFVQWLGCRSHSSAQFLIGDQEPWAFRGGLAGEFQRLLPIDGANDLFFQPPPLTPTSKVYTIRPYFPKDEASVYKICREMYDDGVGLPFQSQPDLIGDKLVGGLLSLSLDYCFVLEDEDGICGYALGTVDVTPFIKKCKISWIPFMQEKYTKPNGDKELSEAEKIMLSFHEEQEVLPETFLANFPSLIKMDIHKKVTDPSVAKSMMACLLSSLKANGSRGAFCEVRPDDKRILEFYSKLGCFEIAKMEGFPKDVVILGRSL

[2] = molecular target: T2, O-GlcNAcase (UniProt Q8VIJ5); type: cell-based; conditions: cells expressing endogenous O-GlcNAcase (such as rat B35, rat PC-12, human SH-SY5Y), approximately 16 hours treatment; read-out: OGA cellular inhibition (EC50)
T2 sequence (Q8VIJ5 1-916): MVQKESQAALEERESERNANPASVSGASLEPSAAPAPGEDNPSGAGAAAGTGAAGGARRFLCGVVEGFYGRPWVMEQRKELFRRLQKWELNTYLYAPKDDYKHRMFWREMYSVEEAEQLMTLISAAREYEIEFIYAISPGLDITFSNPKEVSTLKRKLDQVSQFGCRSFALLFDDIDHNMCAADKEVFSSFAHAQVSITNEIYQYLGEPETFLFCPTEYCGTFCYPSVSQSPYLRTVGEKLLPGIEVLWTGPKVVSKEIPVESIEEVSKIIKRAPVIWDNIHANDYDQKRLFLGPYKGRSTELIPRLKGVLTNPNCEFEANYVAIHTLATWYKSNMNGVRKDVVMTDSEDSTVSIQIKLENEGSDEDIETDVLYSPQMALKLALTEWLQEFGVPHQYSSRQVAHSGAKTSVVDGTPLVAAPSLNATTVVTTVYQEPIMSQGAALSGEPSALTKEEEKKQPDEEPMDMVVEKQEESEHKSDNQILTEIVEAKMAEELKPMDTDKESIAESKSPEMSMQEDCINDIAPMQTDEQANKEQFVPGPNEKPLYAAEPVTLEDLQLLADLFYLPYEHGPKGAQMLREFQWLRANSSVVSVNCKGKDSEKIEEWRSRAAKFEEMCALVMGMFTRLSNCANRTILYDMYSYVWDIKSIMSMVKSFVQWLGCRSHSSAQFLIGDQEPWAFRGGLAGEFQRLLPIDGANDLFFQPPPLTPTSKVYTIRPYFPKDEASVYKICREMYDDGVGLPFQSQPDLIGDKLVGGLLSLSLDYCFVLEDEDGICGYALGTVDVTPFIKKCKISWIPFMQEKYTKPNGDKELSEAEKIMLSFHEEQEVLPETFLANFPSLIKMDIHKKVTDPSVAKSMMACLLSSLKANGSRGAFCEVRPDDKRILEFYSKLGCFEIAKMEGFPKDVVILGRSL
From the text: Assay for the Determination of Cellular Activity for Compounds that Inhibit O-GlcNAcase Activity
Inhibition of O-GlcNAcase, which removes O-GlcNAc from cellular proteins, results in an increase in the level of O-GlcNAcylated proteins in cells. An increase in the O-GlcNAcylation of cellular proteins can be measured by an antibody, such as CTD110.6, that binds O-GlcNAcylated proteins. The amount of O-GlcNAcylated protein can be determined by the enzyme linked immunoabsorbant assay (ELISA) technique.
Cell lines, such as rat B35, rat PC-12 and human SH-SY5Y cells, expressing endogenous levels of O-GlcNAcase, could be utilized. Cells were plated in 96-well plates at a density of approximately 10,000 cells/well. Compounds to be tested were dissolved in DMSO as 10 mM stock solution, and then diluted first with DMSO and then culture media using the Bravo workstation. Cells were treated with diluted compounds for approximately 16 hours. […] To prepare a cell lysate, the media from compound treated cells were removed, and the cells were washed once with Dulbecco's phosphate buffered saline (DPBS) and then lysed for 30 minutes in 100 μl/well of ice cold RIPA buffer containing a protease inhibitor cocktail.
The ELISA portion of the assay was performed in EIA/RIA plates that were coated overnight at 4 C with 80 μl/well of cell lysate. The following day the wells were washed 6 times with 200 μl of wash buffer (0.05% Tween20 in DPBS). The wells were blocked with 200 μl blocking buffer (1% BSA, 0.05% Tween20 in DPBS) for 1 h at room temperature. Each well was then washed 6 times with 200 μl of wash buffer. The anti-O-GlcNAc antibody CTD110.6 (Covance, Princeton, N.J.) was added at 100 μl/well at a concentration of 10 μg/ml. The plates were incubated for 1 h at room temperature. The wells were then washed 6 times with 200 μl/well of wash buffer. To detect the amount of CTD110.6 bound to the cell lysate, alkaline phosphatase conjugated goat anti-mouse IgM (diluted 1:500 in blocking buffer) was added at 100 μl/well and incubated for 45 min at room temperature. Each well was then washed 6 times with 200 μl/well of wash buffer. PNPP tablets dissolved in diethanolamine substrate buffer and 100 μl/well were added as detection reagent.
The amount of O-GlcNAcylated protein, as detected by the ELISA assay, was plotted for each concentration of test compound using standard curve fitting algorithms for sigmoidal dose response curves. The values for a four parameter logistic curve fit of the data were determined, with the inflection point of the curve being the potency value for the test compound.

[3] = read-out: OGA enzyme inhibition (IC50)

CCNC1=N[C@@H]2[C@@H](O)[C@H](O)[C@@H](Cn3cc(Cc4ccccc4)nn3)O[C@@H]2S1 [compound no. 14, (3aR,5R,6S,7R,7aR)-5-[(4-benzyl-1H-1,2,3-triazol-1-yl)methyl]-2-(ethylamino)-5,6,7,7a-tetrahydro-3aH-pyrano[3,2-d][1,3]thiazole-6,7-diol]
IC50 [1]: < 100 nM | EC50 [2]: 100 to 500 nM

C/C=C/C(=O)NC1=N[C@@H]2[C@@H](O)[C@H](O)[C@@H](CO)O[C@@H]2S1 [compound no. 19, (2E)-N-[(3aR,5R,6S,7R,7aR)-6,7-dihydroxy-5-(hydroxymethyl)-5,6,7,7a-tetrahydro-3aH-pyrano[3,2-d][1,3]thiazol-2-yl]but-2-enamide]
IC50 [1, 3]: 500 to 1000 nM | EC50 [2]: > 1000 nM

CCNC1=N[C@@H]2[C@@H](O)[C@H](O)[C@@H](Cn3cc(CCCc4ccccc4)nn3)O[C@@H]2S1 [compound no. 30, (3aR,5R,6S,7R,7aR)-2-(ethylamino)-5-{[4-(3-phenylpropyl)-1H-1,2,3-triazol-1-yl]methyl}-5,6,7,7a-tetrahydro-3aH-pyrano[3,2-d][1,3]thiazole-6,7-diol]
IC50 [1]: 100 to 500 nM | EC50 [2]: > 1000 nM

CCNC1=N[C@@H]2[C@@H](O)[C@H](O)[C@@H](CCl)O[C@@H]2S1 [compound no. 32, (3aR,5S,6S,7R,7aR)-5-(chloromethyl)-2-(ethylamino)-5,6,7,7a-tetrahydro-3aH-pyrano[3,2-d][1,3]thiazole-6,7-diol]
IC50 [1, 3]: < 100 nM | EC50 [2]: < 100 nM

CCNC1=N[C@@H]2[C@@H](OS(C)(=O)=O)[C@H](O)[C@@H](CO)O[C@@H]2S1 [compound no. 46, (3aR,5R,6R,7R,7aR)-2-(ethylamino)-6-hydroxy-5-(hydroxymethyl)-5,6,7,7a-tetrahydro-3aH-pyrano[3,2-d][1,3]thiazol-7-yl methanesulfonate]
IC50 [1, 3]: 100 to 500 nM | EC50 [2]: 100 to 500 nM

CCNC1=N[C@@H]2[C@@H](O)[C@H](O)[C@@H](CN(C)C)O[C@@H]2S1 [compound no. 51, (3aR,5R,6S,7R,7aR)-5-[(dimethylamino)methyl]-2-(ethylamino)-5,6,7,7a-tetrahydro-3aH-pyrano[3,2-d][1,3]thiazole-6,7-diol]
IC50 [1, 3]: 100 to 500 nM | EC50 [2]: 100 to 500 nM

CCNC1=N[C@@H]2[C@@H](O)[C@H](O)[C@@H](Cn3cc(Cn4nnc5ccccc54)nn3)O[C@@H]2S1 [compound no. 57, (3aR,5R,6S,7R,7aR)-5-{[4-(1H-1,2,3-benzotriazol-1-ylmethyl)-1H-1,2,3-triazol-1-yl]methyl}-2-(ethylamino)-5,6,7,7a-tetrahydro-3aH-pyrano[3,2-d][1,3]thiazole-6,7-diol]
IC50 [1]: < 100 nM | EC50 [2]: > 1000 nM

CCNC1=N[C@@H]2[C@@H](O)[C@H](O)[C@@H](Cn3cc(COc4ccccc4)nn3)O[C@@H]2S1 [compound no. 58, (3aR,5R,6S,7R,7aR)-2-(ethylamino)-5-{[4-(phenoxymethyl)-1H-1,2,3-triazol-1-yl]methyl}-5,6,7,7a-tetrahydro-3aH-pyrano[3,2-d][1,3]thiazole-6,7-diol]
IC50 [1, 3]: < 100 nM | EC50 [2]: 500 to 1000 nM

CCNC1=N[C@@H]2[C@@H](O)[C@H](O)[C@@H](Cn3cc(C(C)(O)c4ccccc4)nn3)O[C@@H]2S1 (stereo partly drawn) [compound no. 67, 2-Ethylamino-5-[4-(1-hydroxy-1-phenyl-ethyl)-[1,2,3]triazol-1-ylmethyl]-5,6,7,7a-tetrahydro-3aH-pyrano[3,2-d]thiazole-6,7-diol]
IC50 [1]: < 100 nM | EC50 [2]: < 100 nM
